{
  "source": "patent US20040162247A1",
  "about": "“Therapeutic agent or osteoporosis comprising an active ingredient of quercetin derivatives” (priority 2000, published 2004);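 as to Change Rate (%) of TBA of tibia, of control group: control group rats were ovariectomized and are not the sham group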",
  "key": {"[1]": {"system": "human osteoblast-like cell line Saos-2", "experiment": "Cell proliferation of Saos-2 cells, MTT method", "format": "cell-based", "conditions": "for MTT assay (% of control group): Saos-2, 3 days", "description": "Saos-2 cell line which has similar properties to osteoblasts was obtained from Korean Cell Line Bank affiliated to the Cancer Research Institute of School of Medicine, Seoul National University.\nSaos-2 cells were seeded in a RPMI 1640 medium (Gibco BRL, U.S.A.) supplemented with 10% (v/v) FBS, 100 unit/ml penicillin, 100 gg/ml streptomycin and grown to form a monolayer in an incubator at 37° C. under an environment of 5% (v/v) CO2 and saturated humidity. The culture was fed with fresh medium 2 to 3 times a week and subcultured once a week using 0.25% (w/v) trypsin.\nSaos-2 cells were distributed into a 96-well plate (20,000 cells/well) and quercetin in 1% DMSO was added to a final concentration of 10-2 to 10^−9 mg/ml, 6 wells per each concentration. As a control group, cells without quercetin were used, and as a comparative group, the cells treated with various concentrations of genistein, being studied as a therapeutic agent for osteoporosis, were used. Cells were grown in an incubator at 37° C. for 3 days and incubated 4 more hours under the same condition after adding MTT (3-[4,5-dimethylthiazol-2-yl]-2,5-diphenyltetrazolium bromide, Triazolyl Blue) to a concentration of 0.05 mg/ml. Then, purple colored for-mazan formed in proportion to the number of viable cells was dissolved in DMSO and measured OD at 550 nm employing ELISA reader.\nCell proliferation rate (%) was evaluated by calculating the ratio of the OD of quercetin added well to the OD of control well, wherein, average value of ODs from 6 wells treated with the same concentration of quercetin was employed (see: Table 1).\ncell proliferation rate (%)={(average value of OD at 550 nm of quercetin-treated wells—average value of OD at 550 nm of empty wells)/average value of OD at 550 nm of control wells}×100"}, "[2]": {"system": "ovariectomized rats", "experiment": "Trabecular bone area of lumbars in ovariectomized rats;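 as to Change Rate (%) of TBA of lumbars, of control group: control group rats were ovariectomized and are not the sham group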", "format": "in vivo, Female SD (Sprague-Dawley) rats", "conditions": "OVX rats, 9 weeks i.p. (E2 1 μg/kg/day; quercetin, genistein 10 mg/kg/day); for Change Rate (%) of TBA of lumbars, of control group: control group = 100", "description": "(§1) Trabecular bone area (TBA) of lumbar and tibia removed from the rats of each group which was treated with various agents for 9 weeks were measured as follows: that is, using a digitalizer of quantitative image analysis system (Wild Leitz Co.), image of each trabecula was obtained on computer monitor by drawing a contour of the trabecula, and then, using a computer, calculated were average areas of trabeculae within a rectangle of 2×10^6 μm^2 area wherein the width is about ⅔ of the length of growth plate which located underneath of growth plate at proximity of tibia. Also, following the number of trabeculae within the rectangle were obtained, average area was multiplied by the number of trabeculae to obtain trabecular bone area of each sample bone, which was analyzed statistically (see: Table 5).\nTBAs of lumbars removed from the animal treated with test agents for 9 weeks were measured employing the same method above (see: Table 6)."}, "[3]": {"system": "ovariectomized rats", "experiment": "Complete blood count in ovariectomized rats", "format": "in vivo, Female SD (Sprague-Dawley) rats", "conditions": "rat, in vivo", "description": "(§2) When test agents were administered, for a certain period of time before and after administration, 1.5 ml of blood was sampled from tail vein using a catheter (B.D Co.: 24 G) and subjected to complete blood count (Coulter Co.: JT) and biochemical analyses of plasma (Crone Co.: Airon® 200). During autopsy, blood was sampled from caudal venae cavae and subjected to the analyses above. And then, each sample was frozen to store for measurement of trabecular bone area of femur and examination of internal organs.\nComplete blood count which reflects the condition and abnormality of the body was measured to find out abnormality in test animals caused by administrtion of agents. That is, to find out changes in hematopoiesis of test rats, measured were red blood cell (RBC) count, concentration of hemoglobin (Hb) and hematocrit (Ht) of-blood samples obtained from the rats prior to operation and the rats 10 weeks after administrating agents following operation, and to find out changes in immune system such as inflammation and necrosis of tissues, measured were white blood cell count, lymphocyte count, monocyte count, and granulocyte count (see: Table 7)."}, "[4]": {"system": "ALP activity in osteoblasts (Saos-2)", "experiment": "Alkaline phosphatase (ALP) activity in osteoblasts", "format": "cell-based, human", "conditions": "for ALP activity (% of control group): Saos-2, 3 days", "description": "Since osteoblasts have cell specific alkaline phosphatase activity, the effect of quercetin of the invention on ALP activity in osteoblasts was evaluated as follows: the number of cells, concentration of tested agent, and culture condition were same as those used in MTT experiment of Example 1-2, and cells were harvested after 3 day-incubation. Genistein was used as a comparative agent. ALP activity was evaluated by analysing changes of OD at 405 nm result from hydrolysis of p-nitrophenylphosphate to p-nitrophenol and phosphate (see: Table 1)."}, "[5]": {"system": "ovariectomized rats", "experiment": "Biochemical parameters in plasma of ovariectomized rats", "format": "in vivo, Female SD (Sprague-Dawley) rats", "conditions": "rat, in vivo", "description": "as §2\nSince blood reflects the condition of body, safety of quercetin in the body was evaluated by measuring biochemical parameters: that is, blood samples were obtained from the rat prior to operation, one week after operation, and 10 weeks after operation, and measured were levels of alkaline phosphatase (ALP), calcium, inorganic phosphate, blood urea nitrogen (BUN), creatinin, total cholesterol, HDL-cholesterol and LDL-cholesterol (see: Table 8)."}, "[6]": {"system": "ovariectomized rats", "experiment": "Trabecular bone area of tibia in ovariectomized rats", "format": "in vivo, Female SD (Sprague-Dawley) rats", "conditions": "OVX rats, 9 weeks i.p. (E2 1 μg/kg/day; quercetin, genistein 10 mg/kg/day); for Change Rate (%) of TBA of tibia, of control group: control group = 100", "description": "as §1"}},
  "data": [
    {"smiles": "O=c1c(O)c(-c2ccc(O)c(O)c2)oc2cc(O)cc(O)c12", "note": "[Quercetin, quercetin]", "values": [
      {"measurement": "Cell proliferation by MTT method versus control cells (in words)", "setting": "[1]; Saos-2, 1×10^−9 to 1×10^−3 mg/ml", "value": "did not show any difference from the control cells"},
      {"measurement": "MTT assay (% of control group)", "setting": "[1]; 1 × 10^−2 mg/ml", "value": "108.6 ± 2.2 % of control group"},
      {"measurement": "MTT assay (% of control group)", "setting": "[1]; 1 × 10^−2 mg/ml, listed as quercetin", "value": "109 % of control group"},
      {"measurement": "MTT assay (% of control group)", "setting": "[1]; 1 × 10^−3 mg/ml", "value": "98.3 ± 0.8 % of control group"},
      {"measurement": "MTT assay (% of control group)", "setting": "[1]; 1 × 10^−4 mg/ml", "value": "96.5 ± 0.8 % of control group"},
      {"measurement": "MTT assay (% of control group)", "setting": "[1]; 1 × 10^−5 mg/ml", "value": "95.8 ± 1.1 % of control group"},
      {"measurement": "MTT assay (% of control group)", "setting": "[1]; 1 × 10^−6 mg/ml", "value": "96.0 ± 1.0 % of control group"},
      {"measurement": "MTT assay (% of control group)", "setting": "[1]; 1 × 10^−7 mg/ml", "value": "98.6 ± 1.0 % of control group"},
      {"measurement": "MTT assay (% of control group)", "setting": "[1]; 1 × 10^−8 mg/ml", "value": "93.9 ± 0.8 % of control group"},
      {"measurement": "MTT assay (% of control group)", "setting": "[1]; 1 × 10^−9 mg/ml", "value": "93.1 ± 0.8 % of control group"},
      {"measurement": "TBA (trabecular bone area) of lumbars", "setting": "[2]", "value": "87.38 ± 4.53 ×10^4 μm^2"},
      {"measurement": "Change Rate (%) of TBA of lumbars, of control group", "setting": "[2]", "value": "129.40 ± 6.71", "unit": "%"},
      {"measurement": "Change Rate (%) of TBA of lumbars, of control group", "setting": "[2]; listed as quercetin", "value": 129, "unit": "%"},
      {"measurement": "Concentration of hemoglobin(Hb)", "setting": "[3]", "value": "16.00 ± 0.30", "unit": "g/dL"},
      {"measurement": "Granulocyte count", "setting": "[3]", "value": "2.80 ± 0.30 ×10^3 cells/μl"},
      {"measurement": "Hematocrit(Ht)", "setting": "[3]", "value": "43.62 ± 0.83", "unit": "%"},
      {"measurement": "Lymphocyte count", "setting": "[3]", "value": "16.78 ± 3.52 ×10^3 cells/μl"},
      {"measurement": "Monocyte count", "setting": "[3]", "value": "0.65 ± 0.07 ×10^3 cells/μl"},
      {"measurement": "Red blood cell(RBC) count", "setting": "[3]", "value": "7.29 ± 0.15 ×10^6 cells/μl"},
      {"measurement": "White blood cell count", "setting": "[3]", "value": "20.28 ± 3.77 ×10^3 cells/μl"},
      {"measurement": "White blood cell count, before versus after operation (in words)", "setting": "[3]", "value": "did not show any changes"},
      {"measurement": "ALP activity (% of control group)", "setting": "[4]; 1 × 10^−2 mg/ml", "value": "106.1 ± 4.3 % of control group"},
      {"measurement": "ALP activity (% of control group)", "setting": "[4]; 1 × 10^−3 mg/ml", "value": "107.3 ± 1.5 % of control group"},
      {"measurement": "ALP activity (% of control group)", "setting": "[4]; 1 × 10^−4 mg/ml", "value": "113.5 ± 2.3 % of control group"},
      {"measurement": "ALP activity (% of control group)", "setting": "[4]; 1 × 10^−5 mg/ml", "value": "116.5 ± 3.7 % of control group"},
      {"measurement": "ALP activity (% of control group)", "setting": "[4]; 1 × 10^−6 mg/ml", "value": "127.2 ± 3.5 % of control group"},
      {"measurement": "ALP activity (% of control group)", "setting": "[4]; 1 × 10^−6 mg/ml, listed as quercetin", "value": "127 % of control group"},
      {"measurement": "ALP activity (% of control group)", "setting": "[4]; 1 × 10^−7 mg/ml", "value": "101.2 ± 3.1 % of control group"},
      {"measurement": "ALP activity (% of control group)", "setting": "[4]; 1 × 10^−8 mg/ml", "value": "104.4 ± 3.9 % of control group"},
      {"measurement": "ALP activity (% of control group)", "setting": "[4]; 1 × 10^−9 mg/ml", "value": "98.1 ± 0.0 % of control group"},
      {"measurement": "ALP activation effect relative to genistein", "setting": "[4]; maximum at 1×10^−6 mg/ml (quercetin) versus 1×10^−4 mg/ml (genistein)", "value": "about 100 fold"},
      {"measurement": "Concentration of ALP in plasma", "setting": "[5]", "value": "232.83 ± 20.27", "unit": "U/dL"},
      {"measurement": "Concentration of HDL-cholesterol in plasma", "setting": "[5]", "value": "53.38 ± 3.14", "unit": "mg/dL"},
      {"measurement": "Concentration of LDL-cholesterol in plasma", "setting": "[5]", "value": "24.17 ± 3.13", "unit": "mg/dL"},
      {"measurement": "Concentration of blood urea nitrogen (BUN)", "setting": "[5]", "value": "17.05 ± 0.60", "unit": "mg/dL"},
      {"measurement": "Concentration of calcium in plasma", "setting": "[5]", "value": "10.73 ± 0.48", "unit": "mg/dL"},
      {"measurement": "Concentration of creatinin in plasma", "setting": "[5]", "value": "0.57 ± 0.05", "unit": "mg/dL"},
      {"measurement": "Concentration of inorganic phosphate in plasma", "setting": "[5]", "value": "6.79 ± 0.66", "unit": "mg/dL"},
      {"measurement": "Concentration of total cholesterol in plasma", "setting": "[5]", "value": "77.55 ± 5.13", "unit": "mg/dL"},
      {"measurement": "TBA (trabecular bone area) of tibia", "setting": "[6]", "value": "55.52 ± 7.68 ×10^4 μm^2"},
      {"measurement": "Change Rate (%) of TBA of tibia, of control group", "setting": "[6]", "value": "160.34 ± 22.17", "unit": "%"},
      {"measurement": "Change Rate (%) of TBA of tibia, of control group", "setting": "[6]; listed as quercetin", "value": 160, "unit": "%"}
    ]}
  ]
}
